Species: Rattus norvegicus
Test: DrugMatrix - Regimen: Daily Repeat
Format: toxicity, organism-based, Sprague-Dawley
Set-up: regimen Daily Repeat, gender Male, age 6-8 weeks
Settings: in vivo, sc, route subcutaneous, […]; for ABSOLUTE BASOPHIL / ABSOLUTE EOSINOPHIL / ABSOLUTE LYMPHOCYTE / ABSOLUTE MONOCYTE / ABSOLUTE SEGMENTED NEUTROPHIL / BASOPHIL / EOSINOPHIL / ERYTHROCYTE COUNT / HEMATOCRIT / HEMOGLOBIN / LEUKOCYTE COUNT / LYMPHOCYTE / MEAN CORPUSCULAR HEMOGLOBIN / MEAN CORPUSCULAR HEMOGLOBIN CONCENTRATION / MEAN CORPUSCULAR VOLUME / MONOCYTE / NEUTROPHIL / NUCLEATED RED BLOOD CELLS / PLATELET COUNT: tissue Blood; for ALANINE AMINOTRANSFERASE / ALBUMIN / ALKALINE PHOSPHATASE / ASPARTATE AMINOTRANSFERASE / BLOOD UREA NITROGEN / CARBON DIOXIDE / CHLORIDE / CHOLESTEROL / CREATINE PHOSPHOKINASE / CREATININE / GLUCOSE / LACTATE DEHYDROGENASE / LIPASE / PHOSPHORUS / POTASSIUM / SODIUM / TOTAL BILIRUBIN / TOTAL PROTEIN / URIC ACID: tissue Plasma
[1] = 68 mg/kg, 72 h, dose level High, time 3 day
[2] = 68 mg/kg, 120 h, dose level High, time 5 day
[3] = 72 h, dose 6.8 mg/Kg, dose level Low, time 3 day
[4] = 120 h, dose 6.8 mg/Kg, dose level Low, time 5 day

Question: Which results are given for `Oc1cccc2cccnc12` [OXYQUINOLINE]?
Answer: ABSOLUTE BASOPHIL [1]: 0 CELLS/uL; ABSOLUTE EOSINOPHIL [1]: 246.33 CELLS/uL; ABSOLUTE LYMPHOCYTE [1]: 13064.33 CELLS/uL; ABSOLUTE MONOCYTE [1]: 405.33 CELLS/uL; ABSOLUTE SEGMENTED NEUTROPHIL [1]: 1850.67 CELLS/uL; BASOPHIL [1]: 0%; EOSINOPHIL [1]: 1.67%; ERYTHROCYTE COUNT [1]: 5.38 x10E6/uL; HEMATOCRIT [1]: 34.33%; HEMOGLOBIN [1]: 12.8 G/DL; LEUKOCYTE COUNT [1]: 15.57 x10E3/uL; LYMPHOCYTE [1]: 83.67%; MEAN CORPUSCULAR HEMOGLOBIN [1]: 23.83 pg; MEAN CORPUSCULAR HEMOGLOBIN CONCENTRATION [1]: 37.33 G/DL; MEAN CORPUSCULAR VOLUME [1]: 63.87 fL; MONOCYTE [1]: 2.67%; NEUTROPHIL [1]: 12%; NUCLEATED RED BLOOD CELLS [1]: 0 /100WBC; PLATELET COUNT [1]: 1290 x10E3/uL; ALANINE AMINOTRANSFERASE [1]: 49.33 u/L; ALBUMIN [1]: 3.73 G/DL; ALKALINE PHOSPHATASE [1]: 444 u/L; ASPARTATE AMINOTRANSFERASE [1]: 72 u/L; BLOOD UREA NITROGEN [1]: 18.67 mg/dL; CARBON DIOXIDE [1]: 26 mmol/L; CHLORIDE [1]: 105 MEQ/L; CHOLESTEROL [1]: 65.33 mg/dL; CREATINE PHOSPHOKINASE [1]: 160.33 u/L; CREATININE [1]: 0.13 mg/dL; GLUCOSE [1]: 169 mg/dL; LACTATE DEHYDROGENASE [1]: 87.67 u/L; LIPASE [1]: 8.67 u/L; PHOSPHORUS [1]: 12.4 mg/dL; POTASSIUM [1]: 6.22 MEQ/L; SODIUM [1]: 146.43 MEQ/L; TOTAL BILIRUBIN [1]: 0.2 mg/dL; TOTAL PROTEIN [1]: 5.63 G/DL; URIC ACID [1]: 1.07 mg/dL; ABSOLUTE BASOPHIL [2]: 0 CELLS/uL; ABSOLUTE EOSINOPHIL [2]: 367.33 CELLS/uL; ABSOLUTE LYMPHOCYTE [2]: 11402.67 CELLS/uL; ABSOLUTE MONOCYTE [2]: 397.67 CELLS/uL; ABSOLUTE SEGMENTED NEUTROPHIL [2]: 1465.67 CELLS/uL; BASOPHIL [2]: 0%; EOSINOPHIL [2]: 2.67%; ERYTHROCYTE COUNT [2]: 5.88 x10E6/uL; HEMATOCRIT [2]: 36.73%; HEMOGLOBIN [2]: 13.63 G/DL; LEUKOCYTE COUNT [2]: 13.63 x10E3/uL; LYMPHOCYTE [2]: 83.33%; MEAN CORPUSCULAR HEMOGLOBIN [2]: 23.2 pg; MEAN CORPUSCULAR HEMOGLOBIN CONCENTRATION [2]: 37.13 G/DL; MEAN CORPUSCULAR VOLUME [2]: 62.53 fL; MONOCYTE [2]: 3%; NEUTROPHIL [2]: 11%; NUCLEATED RED BLOOD CELLS [2]: 0 /100WBC; PLATELET COUNT [2]: 1567 x10E3/uL; ALANINE AMINOTRANSFERASE [2]: 37.67 u/L; ALBUMIN [2]: 3.87 G/DL; ALKALINE PHOSPHATASE [2]: 326.67 u/L; ASPARTATE AMINOTRANSFERASE [2]: 67 u/L; BLOOD UREA NITROGEN [2]: 16.67 mg/dL; CARBON DIOXIDE [2]: 25.33 mmol/L; CHLORIDE [2]: 105 MEQ/L; CHOLESTEROL [2]: 75.33 mg/dL; CREATINE PHOSPHOKINASE [2]: 175 u/L; CREATININE [2]: 0.16 mg/dL; GLUCOSE [2]: 162 mg/dL; LACTATE DEHYDROGENASE [2]: 86.67 u/L; LIPASE [2]: 8 u/L; PHOSPHORUS [2]: 13.33 mg/dL; POTASSIUM [2]: 6.17 MEQ/L; SODIUM [2]: 147.4 MEQ/L; TOTAL BILIRUBIN [2]: 0.17 mg/dL; TOTAL PROTEIN [2]: 6.03 G/DL; URIC ACID [2]: 2.03 mg/dL; ABSOLUTE BASOPHIL [3]: 0 CELLS/uL; ABSOLUTE EOSINOPHIL [3]: 0 CELLS/uL; ABSOLUTE LYMPHOCYTE [3]: 14772 CELLS/uL; ABSOLUTE MONOCYTE [3]: 208 CELLS/uL; ABSOLUTE SEGMENTED NEUTROPHIL [3]: 1086.67 CELLS/uL; BASOPHIL [3]: 0%; EOSINOPHIL [3]: 0%; ERYTHROCYTE COUNT [3]: 5.93 x10E6/uL; HEMATOCRIT [3]: 37.03%; HEMOGLOBIN [3]: 13.73 G/DL; LEUKOCYTE COUNT [3]: 16.07 x10E3/uL; LYMPHOCYTE [3]: 91.33%; MEAN CORPUSCULAR HEMOGLOBIN [3]: 23.23 pg; MEAN CORPUSCULAR HEMOGLOBIN CONCENTRATION [3]: 37.07 G/DL; MEAN CORPUSCULAR VOLUME [3]: 62.63 fL; MONOCYTE [3]: 1.33%; NEUTROPHIL [3]: 7.33%; NUCLEATED RED BLOOD CELLS [3]: 0.33 /100WBC; PLATELET COUNT [3]: 1308.67 x10E3/uL; ALANINE AMINOTRANSFERASE [3]: 45.67 u/L; ALBUMIN [3]: 4.3 G/DL; ALKALINE PHOSPHATASE [3]: 363.67 u/L; ASPARTATE AMINOTRANSFERASE [3]: 73.33 u/L; BLOOD UREA NITROGEN [3]: 15 mg/dL; CARBON DIOXIDE [3]: 24.33 mmol/L; CHLORIDE [3]: 103 MEQ/L; CHOLESTEROL [3]: 68.67 mg/dL; CREATINE PHOSPHOKINASE [3]: 130.33 u/L; CREATININE [3]: 0.2 mg/dL; GLUCOSE [3]: 142.67 mg/dL; LACTATE DEHYDROGENASE [3]: 83.33 u/L; LIPASE [3]: 8.67 u/L; PHOSPHORUS [3]: 11.27 mg/dL; POTASSIUM [3]: 6.77 MEQ/L; SODIUM [3]: 146.07 MEQ/L; TOTAL BILIRUBIN [3]: 0.2 mg/dL; TOTAL PROTEIN [3]: 5.57 G/DL; URIC ACID [3]: 1.63 mg/dL; ABSOLUTE BASOPHIL [4]: 0 CELLS/uL; ABSOLUTE EOSINOPHIL [4]: 182.67 CELLS/uL; ABSOLUTE LYMPHOCYTE [4]: 12749.33 CELLS/uL; ABSOLUTE MONOCYTE [4]: 601.33 CELLS/uL; ABSOLUTE SEGMENTED NEUTROPHIL [4]: 1500 CELLS/uL; BASOPHIL [4]: 0%; EOSINOPHIL [4]: 1.33%; ERYTHROCYTE COUNT [4]: 6.16 x10E6/uL; HEMATOCRIT [4]: 37.9%; HEMOGLOBIN [4]: 13.87 G/DL; LEUKOCYTE COUNT [4]: 15.03 x10E3/uL; LYMPHOCYTE [4]: 84.67%; MEAN CORPUSCULAR HEMOGLOBIN [4]: 22.53 pg; MEAN CORPUSCULAR HEMOGLOBIN CONCENTRATION [4]: 36.6 G/DL; MEAN CORPUSCULAR VOLUME [4]: 61.5 fL; MONOCYTE [4]: 4%; NEUTROPHIL [4]: 10%; NUCLEATED RED BLOOD CELLS [4]: 0 /100WBC; PLATELET COUNT [4]: 1278.67 x10E3/uL; ALANINE AMINOTRANSFERASE [4]: 45 u/L; ALBUMIN [4]: 4.2 G/DL; ALKALINE PHOSPHATASE [4]: 341 u/L; ASPARTATE AMINOTRANSFERASE [4]: 77 u/L; BLOOD UREA NITROGEN [4]: 19 mg/dL; CARBON DIOXIDE [4]: 24.33 mmol/L; CHLORIDE [4]: 107 MEQ/L; CHOLESTEROL [4]: 75.33 mg/dL; CREATINE PHOSPHOKINASE [4]: 227.33 u/L; CREATININE [4]: 0.17 mg/dL; GLUCOSE [4]: 154.33 mg/dL; LACTATE DEHYDROGENASE [4]: 324 u/L; LIPASE [4]: 9 u/L; PHOSPHORUS [4]: 12.23 mg/dL; POTASSIUM [4]: 6.39 MEQ/L; SODIUM [4]: 146.97 MEQ/L; TOTAL BILIRUBIN [4]: 0.13 mg/dL; TOTAL PROTEIN [4]: 6.37 G/DL; URIC ACID [4]: 1.5 mg/dL

From ChEMBL document CHEMBL3885881, “DrugMatrix”
